Reference: patent publication US10335372B2, “Compositions with modified nucleases targeted to viral nucleic acids and methods of use for prevention and treatment of viral diseases” (priority 2004, dated 2019)
Numbering of substitutions follows the chain as printed. Names and notes keep the numbering of the source. Values joined by “and” are separate entries in the source; they are usually repeats but may differ in a detail not shown here. Equal values may be shown once. Read-outs that look alike come from different tables or passages of the source. Where no end group is shown, it is not given here. [ ]: non-standard residue; d: D form.

Tests used:
avian adenovirus = tested on: avian adenovirus; design: species or system chickens; details: in vivo
[1] = tested on: herpes virus simplex I (HSV-I); test: Effect of tri-peptide P3 and P-PEG-R8 on replication of HSV-1 in vitro; type: cell-based; details: for HSV Titer: single values
dsDNA [2] = details: physiological monovalent cation strength; cited from earlier work
HepG2 intact cells = test: Cellular uptake of rhodamine-labeled DNase complexes, fluorimeter; type: cell-based, human; details: 30 min incubation
Protocol: (§1) The cellular uptake of bovine DNase I (DNase), DNase-PEG and DNase-PEG-R8 complex is evaluated using the HepG2 cell line (human hepatocarcinoma cells ATCC, No-HB-8065). […] DNase I is labeled with fluorescent rodamine (*) according to the manufacturer's instruction (Pierce, Inc., Rockford, Ill.). Penetration of *DNase-PEG-K-R8 into HepG2 cells is compared to that of *DNase and *DNase-PEG after 30 min of incubation with HepG2 cells in DMEM at 37° C.
(§2) To maintain the cells the growth medium 199 is used.

HepG2 VV-infected cells = type: cell-based, human; details: 30 min incubation
Protocol: as §1, §2

S-protein = S-protein (Bos taurus, UniProt P61823); details: N-terminal residues 1-15; cited from earlier work
HIV-1 (HXB2) = test: Plaque reduction assay in CD4+ HeLa cells of serially passaged virus; type: cell-based
HIV-1 = HIV-1 infectivity on serial passage in MT-4 cells with drug; type: cell-based
mouse leukemia virus [3] = test: Treatment of viral lymphatic leukemia in 9-10 month old AKR mice; type: in vivo; details: 5 kUA/g s.c. every four days
Protocol: To study the treatment effect of DNase and TDNase, the experiment is carried out on 9-10 month old AKR mice with manifestations of lymphoid leukemia. A significant increase in the size of lymph nodes, thymus, liver and spleen and high mitotic index in lymphoid tissues is observed in these animals. The treated groups include 24 mice in each while the control group includes 19 mice. Administration of DNase I and TDNase every four days s.c., in a dose of 5,000 KuU/g body weight, results in a decrease of lymphatic tissues and mitotic index to normal levels, and in an increase in longevity of animals. However, a more profound effect is obtained in animals receiving TDNase than DNase, and receiving TDNase-PEG than TDNase, as is shown in Table 25.

cytomegalovirus (CMV) = test: Anti-CMV activity in HEP-2 cells; details: for CMV Titer: single values
Vaccinia virus = type: cell-based; details: 500 KuU/ml, 48 h at 37° C.
[4] = tested on: Herpes simplex virus, type I (HSV-1); test: Anti-HSV-1 activity in HEP-2 cells; type: cell-based; details: for HSV Titer: single values
cytomegalovirus = test: Antiviral activity of modified DNase I against cytomegalovirus in cell culture; details: 500 UA/ml, 48 h at 37° C.; for Virus Titer: single values
mouse leukemia virus [5] = test: Prevention of leukemia development in AKR mice; type: in vivo; details: 5,000 KuU/g s.c. every second day for a month
Description: Leukemia in AKR mice is known to be promoted by mouse leukemia virus. The lymphoid tissues of AKR mice contain mouse leukemia virus, and spontaneously develop leukemia, at the age of 6-8 months.

ssRNA corona virus = test: Antiviral efficacy of pegylated human RNase I
dsDNA [6] = test: Hydrolysis of dsDNA in human serum by native, multi-charged and actin-resistant DNase I variants
honeybee paralysis virus = type: in vivo, honeybees; details: of 100 infected
Protocol: Infectious titer of HBVP is […] per ml. The honeybees are infected by feeding the viral emulsion. Insects are sprayed by an aerosol of enzyme diluted in physiological solution 3 hours before the inoculation of virus. […] Treatment of insects 6 hours after inoculation of virus still protected them from development of disease.

dsRNA reovirus = test: RNase A on virus replication in HEP-2 cells; details: 200 UA/ml
[7] = tested on: ssRNA equine encephalitis virus; type: cell-based; details: 500 UA/ml
ssRNA coronavirus = test: RNase A on virus replication in HEP-2 cells; details: 200 UA/ml

Molecule: [dS]-His-[dD] [P3]
- chickens that survive (avian adenovirus): 19
- Average Titer ([1]; 10 UA/ml): 5.7 logTCD50/ml
- HSV Titer ([1]; 10 UA/ml): 5.8 logTCD50/ml and 5.6 logTCD50/ml and 5.7 logTCD50/ml
- Average Titer ([1]; 50 UA/ml): 5.4 logTCD50/ml
- HSV Titer ([1]; 50 UA/ml): 5.5 logTCD50/ml and 5.4 logTCD50/ml and 5.3 logTCD50/ml
- Average Titer ([1]; 100 UA/ml): 5.1 logTCD50/ml
- HSV Titer ([1]; 100 UA/ml): 5.2 logTCD50/ml and 5.3 logTCD50/ml and 5.1 logTCD50/ml
- Average Titer ([1]; 500 UA/ml): 4.8 logTCD50/ml
- HSV Titer ([1]; 500 UA/ml): 4.8 logTCD50/ml and 4.9 logTCD50/ml and 4.7 logTCD50/ml

Molecule: EndoG: sugar-nonspecific 29 kDa human endonuclease
- inhibition (dsDNA [2]): about 15 fold

Molecule: [dS]-His
- chickens that survive (avian adenovirus): 18

Molecule: *DNase
- OD (430 nm), cellular uptake (HepG2 intact cells): 37
- OD (430 nm), cellular uptake (HepG2 VV-infected cells): 48

Molecule: KETAAAKFERQHMDS [bovine S-peptide]
- Kd (S-protein): < 0.001 µM

Molecule: Cc1cn([C@H]2C[C@H](N=[N+]=[N-])[C@@H](CO)O2)c(=O)[nH]c1=O [AZT]
- shift in sensitivity (HIV-1 (HXB2); sixth passage): > 1000 fold
- IC50 (HIV-1 (HXB2); virus of fourth passage in drug-treated MT-4 cells): > 50 µM
- IC50 (HIV-1 (HXB2); virus of sixth passage): > 250 µM
- HIV-1 infectivity (HIV-1; passage 0): 2.8 log10TCID50/ml
- HIV-1 infectivity (HIV-1; passage 1): 2.6 log10TCID50/ml
- HIV-1 infectivity (HIV-1; passage 2): 3.8 log10TCID50/ml
- HIV-1 infectivity (HIV-1; passage 5): 4.7 log10TCID50/ml
- HIV-1 infectivity (HIV-1; passage 15): 5.9 log10TCID50/ml

Molecule: DNase
- Liver (mouse leukemia virus [3]): 941 ± 33 g
- Longevity (weeks) (mouse leukemia virus [3]): 16 ± 1.0 weeks
- Mitotic Index (mouse leukemia virus [3]): 0.18 ± 0.02
- Average Titer (cytomegalovirus (CMV); 50 UA/ml): 5.1 logTCD50/ml
- CMV Titer (cytomegalovirus (CMV); 50 UA/ml): 5.1 logTCD50/ml and 5.0 logTCD50/ml
- Average Titer (cytomegalovirus (CMV); 100 UA/ml): 4.5 logTCD50/ml
- CMV Titer (cytomegalovirus (CMV); 100 UA/ml): 4.6 logTCD50/ml and 4.5 logTCD50/ml and 4.7 logTCD50/ml
- Average Titer (cytomegalovirus (CMV); 500 UA/ml): 3.8 logTCD50/ml
- CMV Titer (cytomegalovirus (CMV); 500 UA/ml): 3.8 logTCD50/ml and 3.9 logTCD50/ml and 3.7 logTCD50/ml
- Average Titer (cytomegalovirus (CMV); [0] UA/ml): 5.5 logTCD50/ml
- CMV Titer (cytomegalovirus (CMV); [0] UA/ml): 5.4 logTCD50/ml and 5.6 logTCD50/ml and 5.5 logTCD50/ml
- Average log TCD50 (Vaccinia virus): 4.7 log TCD50
- log TCD50 (Vaccinia virus; single values): 4.6 log TCD50 and 4.8 log TCD50
- Average Titer ([4]; 10 UA/ml): 5.4 logTCD50/ml
- HSV Titer ([4]; 10 UA/ml): 5.4 logTCD50/ml and 5.5 logTCD50/ml and 5.3 logTCD50/ml
- Average Titer ([4]; 50 UA/ml): 5.1 logTCD50/ml
- HSV Titer ([4]; 50 UA/ml): 5.1 logTCD50/ml and 5.0 logTCD50/ml
- Average Titer ([4]; 100 UA/ml): 4.5 logTCD50/ml
- HSV Titer ([4]; 100 UA/ml): 4.6 logTCD50/ml and 4.5 logTCD50/ml and 4.7 logTCD50/ml
- Average Titer ([4]; 500 UA/ml): 3.8 logTCD50/ml
- HSV Titer ([4]; 500 UA/ml): 3.8 logTCD50/ml and 3.9 logTCD50/ml and 3.7 logTCD50/ml
- Average Titer (cytomegalovirus): 6.5 logTCD50/0.1 ml
- Virus Titer (cytomegalovirus): 6.3 logTCD50/0.1 ml and 6.4 logTCD50/0.1 ml and 6.5 logTCD50/0.1 ml
- development of leukemia (mouse leukemia virus [5]): preclude the development of leukemia

B1: pegylated RNase I: wild-type recombinant human RNase I reacted with mPEG-SS (conjugate, UniProt P07998 29-156, looked up)
Ribonuclease pancreatic: KESRAKKFQRQHMDSDSSPSSSSTYCNQMMRRRNMTQGRCKPVNTFVHEPLVDVQNVCFQEKVTCKNGQGNCYKSNSSMHITDCRLTNGSRYPNCAYRTSPKERHIIVACEGSPYVPVHFDASVEDST
modifications: mPEG-SS
- antiviral efficacy compared with unpegylated enzyme (ssRNA corona virus): enhances its antiviral efficacy

B2: arDNase (+1): actin-resistant human DNase I with substitution A114R (protein, UniProt P24855 23-282, looked up, variant A114R)
Deoxyribonuclease-1: LKIAAFNIQTFGETKMSNATLVSYIVQILSRYDIALVQEVRDSHLTAVGKLLDNLNQDAPDTYHYVVSEPLGRNSYKERYLFVYRPDQVSAVDSYYYDDGCEPCGNDTFNREPRIVRFFSRFTEVREFAIVPLHAAPGDAVAEIDALYDVYLDVQEKWGLEDVMLMGDFNAGCSYVRPSQWSSIRLWTSPTFQWLIPDSADTTATPTHCAYDRIVVAGMLLRGAVVPDSALPFNFQAAYGLSDQLAQAISDHYPVEVMLK
- Average T50 (min) 50% DNA hydrolysis (dsDNA [6]): 3 min
- Time T50 (min) 50% DNA hydrolysis (dsDNA [6]; single values of triplicate): 2 min and 3 min and 4 min

B3: PEG-DNase: human DNase I conjugated with PEG (Example 14) (conjugate, UniProt P24855 23-282, looked up)
Deoxyribonuclease-1: B2 Deoxyribonuclease-1 with R114A
modifications: PEG
- Average Titer (cytomegalovirus): 3.4 logTCD50/0.1 ml
- Virus Titer (cytomegalovirus): 3.2 logTCD50/0.1 ml and 3.4 logTCD50/0.1 ml and 3.5 logTCD50/0.1 ml

B4: (PNA)2-PEG-DNase: 18-mer bis-PNA complementary to viral DNA conjugated with forked 2×20 kDa PEG and human DNase I (conjugate, UniProt P24855 23-282, looked up)
Deoxyribonuclease-1: B2 Deoxyribonuclease-1 with R114A
modifications: forked 2x20 kDa PEG, bis-PNA
- Average Titer (cytomegalovirus): 0.3 logTCD50/0.1 ml
- Virus Titer (cytomegalovirus): 0.2 logTCD50/0.1 ml and 0.3 logTCD50/0.1 ml and 0.4 logTCD50/0.1 ml

B5: RNase A: bovine RNase A (Examples 21, 23, 24, 28, 37, 40) (protein, UniProt P61823 27-150, looked up)
Ribonuclease pancreatic: KETAAAKFERQHMDSSTSAASSSNYCNQMMKSRNLTKDRCKPVNTFVHESLADVQAVCSQKNVACKNGQTNCYQSYSTMSITDCRETGSSKYPNCAYKTTQANKHIIVACEGNPYVPVHFDASV
- Surviving Honeybees (honeybee paralysis virus; 200 UA/ml): 4
- Surviving Honeybees (honeybee paralysis virus; 500 UA/ml): 11
- Surviving Honeybees (honeybee paralysis virus; 1000 UA/ml): 67
- Surviving Honeybees (honeybee paralysis virus; 1500 UA/ml): 100
- Average Titer (dsRNA reovirus): 4.0 logTCD50/0.1 ml
- Titer (dsRNA reovirus; single values): 4.0 logTCD50/0.1 ml and 4.1 logTCD50/0.1 ml and 3.9 logTCD50/0.1 ml
- Average Titer [7]: 5.26 logTCD50/0.1 ml
- Titer ([7]; single values): 5.2 logTCD50/0.1 ml and 5.4 logTCD50/0.1 ml
- Average Titer (ssRNA coronavirus): 1.5 logTCD50/0.1 ml
- Titer (ssRNA coronavirus; single values): 1.4 logTCD50/0.1 ml and 1.6 logTCD50/0.1 ml and 1.5 logTCD50/0.1 ml
